Tests used:
[1] = test system: Principal Bile Acids in Colon; test: Bile acid composition of colon after oral administration (GC-MS); assay type: in vivo, Sprague-Dawley rats; details: for Chenodeoxycholic acid mass in colon / Cholic acid mass in colon / Cholic acid percent of colonic bile acids / Deoxycholic acid mass in colon / Deoxycholic acid percent of colonic bile acids / Lithocholic acid mass in colon / Lithocholic acid percent of colonic bile acids / Total bile acid mass in colon / UDCA mass in colon / UDCA percent of colonic bile acids / Δ^22-UDCA percent of colonic bile acids / Δ^22-β-Muricholic acid mass in colon / Δ^22-ω-Muricholic acid mass in colon / α-Muricholic acid mass in colon / β-Muricholic acid mass in colon / ω-Muricholic acid mass in colon / Δ^22-UDCA mass in colon: oral gavage 250 mg/day, 4 days, mean ± SEM; for Change in colonic deoxycholic / lithocholic acid (in words): oral, vs control
Protocol: Male Sprague-Dawley rats (Harlan Sprague-Dawley, Inc., Indianapolis, Ind.), weighing 210-290 g, were maintained on a 12-hour light-dark cycle and fed standard laboratory chow ad libitum for 3 days. The animals were then transferred to metabolic cages in which they were housed individually and fed the same diet. UDCA, UDCA 3-sulfate, UDCA 7-sulfate, and UDCA 3,7-disulfate were administered by gavage at a dose of 250 mg/day for 4 consecutive days. Each group comprised 3-6 rats. Body weights of the animals were measured each day. On day 5, the animals were killed by exsanguination under ether anesthesia. Plasma was collected and frozen at -20° C. The liver was removed, rinsed in normal saline, and flash-frozen in liquid nitrogen. Urine and feces were collected every 24 hours and frozen at -20° C. All animals received humane care in compliance with the "Guide for the Care and Use of Laboratory Animals" prepared by the National Academy of Sciences (National Institutes of Health publication no. 86-23, revised in 1985).
Intestinal contents were weighed and dissected into small pieces. In each group, feces (100 mg) from all animals were pooled on day 4 of the study and then ground into a fine paste. All samples were sonicated and sequentially refluxed in 80% methanol for 2 hours and chloroform/methanol (1:1) for 1 hour. Samples were taken to dryness, and the dried extracts were resuspended in 80% methanol (20 mL). Fractions of the methanolic extract (1/40 of intestinal contents and 1/20 of feces samples) were removed and the internal standard nordeoxycholic acid (10 μg) was added. This extract was diluted with 0.01 mol/L acetic acid (20 mL) and passed first through a column of Lipidex 1000 (bed size, 4×1 cm; Packard Instrument Co., Groningen, The Netherlands) and then through a Bond-Elut C18, cartridge (Analytichem, Harbor City, Calif.). Bile acids were recovered by elution of the Lipidex 1000 column and the Bond-Elut cartridge with methanol (20 mL and 5 mL, respectively), and the combined extracts were taken to dryness. Unconjugated bile acids were isolated and separated from neutral sterol and conjugated bile acids by lipophilic anion exchange chromatography on diethylaminohydroxypropyl Sephadex LH-20 (Lipidex-DEAP; Package Instrument Co.). Recovery of unconjugated bile acids was achieved by elution with 0.1 mol/L acetic acid in 72% ethanol (7 mL) followed by evaporation of the solvents. Total conjugated bile acids were recovered with 9 mL of 0.3 mol/L acetic acid in 72% ethanol, pH 9.6. Salts were removed by passage through a Bond-Elut C18 cartridge after addition of nordeoxycholic acid (10 μg), and conjugated bile acids were recovered by elution with 5 mL of methanol. Solvolysis was performed in a mixture of methanol (1 mL), distilled tetrahydrofuran (9 mL), and 1 mol/L trifluoracetic acid in dioxane (0.1 mL) and heated to 45° C for 2 hours. After solvolysis, unconjugated bile acids were isolated by chromatography on Lipidex-DEAP. Methyl ester derivatives were prepared by dissolving the sample in methanol (0.3 mL) and reacting with 2.7 mL of freshly distilled ethereal diazomethane. After evaporation of the reagents, the methyl ester derivatives were converted to trimethylsilyl ethers by the addition of […] of Tri-Sil reagent (Pierce Chemicals, Rockford, Ill.). A column of Lipidex 5000 (Packard Instrument Co.) was used to remove derivatizing reagents and to purify the sample.
GC-MS analysis was performed using a Finnigan 4635 mass spectrometer (Finnigan Inc., San Jose, Calif.) that housed an identical gas chromatography column operated under the same conditions. Electron ionization (70 eV) mass spectra were recorded over the mass range of 50-800 daltons by repetitive scanning of the eluting components. […]

[2] = Urinary excretion after i.v. infusion; assay type: in vivo, Sprague-Dawley rats; details: rat, urine, iv, read-out: Proportion of administered dose appearing in urine
Protocol: Adult male Sprague-Dawley rats (body weight 200-230 g) were anesthetized by an intraperitoneal injection of pentobarbital (Nembutal, 7.5 mg/100 g body weight), and maintained under sedation by additional doses. The right jugular vein and the common bile duct were cannulated using PE-50 polyethylene tubing (Clay-Adams, Parsippany, N.J.). Body temperature was maintained throughout the experiment at 37° C. using a rectal probe and a thermostatically controlled heating pad (Harvard Apparatus Co., Inc., Millis, Mass.). Saline was infused at a rate of 1.0 ml/h using a Harvard pump (Harvard Apparatus Co., Inc.) into the jugular vein for a control period of 2h. After collecting two 10 minute bile samples for base-line analysis, the bile acids were individually infused intravenously (i.v.) for 30 minutes in stepwise increasing doses (0.5, 1.0, and 2.0 μmol/min/100 g body weight). Bile acid solutions were prepared in 3% human albumin in 0.45% saline. Six animals were used for each experiment and bile was collected every 10 minutes into preweighed tubes. At the end of the experiment, blood was obtained by cardiac puncture, and urine was obtained by aspiration of the bladder. All biological specimens were stored at -20° C. This animal study protocol (#1 B 10044) was approved by the Bioethics committee of the Children's Hospital Medical Center (Cincinnati, Ohio).
Negative ion fast atom bombardment-mass spectrometry (FAB-MS) spectra of bile samples, urine and synthetic compounds were obtained after placing the equivalent of approximately 1 μl of the original bile extract, 10 μl-50 μl of the urine extract and jig quantities of synthetic bile acids dissolved in methanol onto a small drop of a glycerol matrix spotted on a copper target of the FAB probe. This probe was introduced directly into the ion source of the mass spectrometer and a beam of fast atoms of either xenon generated with a saddle field atom gun (ion Tech, Teddington, Middlesex, UK) operated at 8 kV and 20 μA, or cesium generated from cesium iodine (35 kV), was fired at the target containing the sample. Negative ion spectra were obtained over the mass range of 50-1000 Da/e.
Urine collections from the six animals were pooled and the bile acids were extracted by liquid-solid extraction using a Bond Elut-C18 cartridge and bile acids were analyzed by GC-MS after solvolysis, hydrolysis and derivatization.

SMILES	Chenodeoxycholic acid mass in colon [1] [mg]	Cholic acid mass in colon [1] [mg]	Cholic acid percent of colonic bile acids [1] [%]	Deoxycholic acid mass in colon [1]	Deoxycholic acid percent of colonic bile acids [1] [%]	Lithocholic acid mass in colon [1] [mg]	Lithocholic acid percent of colonic bile acids [1] [%]	Total bile acid mass in colon [1] [mg]	UDCA mass in colon [1] [mg]	UDCA percent of colonic bile acids [1] [%]	Δ^22-UDCA percent of colonic bile acids [1] [%]	Δ^22-β-Muricholic acid mass in colon [1] [mg]	Δ^22-ω-Muricholic acid mass in colon [1] [mg]	α-Muricholic acid mass in colon [1] [mg]	β-Muricholic acid mass in colon [1] [mg]	ω-Muricholic acid mass in colon [1] [mg]	Change in colonic deoxycholic / lithocholic acid (in words) [1]	dose excreted [2] [%]	Δ^22-UDCA mass in colon [1] [mg]
C[C@H](CCC(=O)O)[C@H]1CC[C@H]2[C@@H]3[C@@H](OS(=O)(=O)O)C[C@@H]4C[C@H](O)CC[C@]4(C)[C@H]3CC[C@]12C [UDCA-7S, ursodeoxycholic acid 7-sulfate]	0.06	0.09	2.5	0.36 mg	11.4	0.04	1.3	2.98	1.28	44.0	0	0.03	0.15	0.03	0.06	0.88	substantial reductions in the mass and proportion of both deoxycholic acid and lithocholic acid	0.9	–
C[C@H](CCC(=O)O)[C@H]1CC[C@H]2[C@@H]3[C@@H](OS(=O)(=O)O)C[C@@H]4C[C@H](OS(=O)(=O)O)CC[C@]4(C)[C@H]3CC[C@]12C [UDCA-DS, ursodeoxycholic acid 3,7-disulfate]	0.07	0.23	26.3	0.31 mg	27.2	0.02	1.8	1.22	0.20	14.7	0	0.01	0.06	0.03	0.06	0.24	substantial reductions in the mass and proportion of both deoxycholic acid and lithocholic acid	2.2	–
C[C@H](CCC(=O)O)[C@H]1CC[C@H]2[C@@H]3[C@@H](O)C[C@@H]4C[C@H](O)CC[C@]4(C)[C@H]3CC[C@]12C [UDCA, 3 alpha, 7 beta-dihydroxy-5 beta-cholan-24oic acid, reference compound]	0.05	0.24	8.9	0.31 mg	10.4	0.97	32.0	3.04	0.31	8.3	0.4	–	0.19	0.01	0.13	0.83	decrease (P=0.003) in the proportion of deoxycholic acid	0.01	0.02
C[C@H](CCC(=O)O)[C@H]1CC[C@H]2[C@@H]3[C@@H](O)C[C@@H]4C[C@H](OS(=O)(=O)O)CC[C@]4(C)[C@H]3CC[C@]12C [UDCA-3S, ursodeoxycholic acid 3-sulfate]	0.06	0.44	13.8	.58 mg	17.4	0.61	18.4	4.07	0.05	1.5 ± 0.2	0.2 ± 0.1	0.01	0.44	0.02	0.20	1.67	–	2.8	0.01

Source: patent US5763435A, “Sulfate conjugates of ursodeoxycholic acid, and their beneficial use in inflammatory disorders” (priority 1995, dated 1998)
